Measurements from US11536729B2, “Method of identifying novel protein aggregation inhibitors based on chemical kinetics” (Cambridge Enterprise Limited, priority 2016, dated 2022).

Assays:
Format in all cases: biochemical
Aβ42 [1] = target: T1, Aβ42 (Homo sapiens, UniProt P05067); assay: ThT-based Aβ42 aggregation kinetics under quiescent (unseeded) conditions; settings: for ranking of efficacy within set: 2 μM Aβ42; for change of inhibitory activity relative to parent scaffold: structural comparison among RAR/RXR modulators
T1 construct: The recombinant Aβ (M1-42) peptide; made in house; host or cells: E. coli BL21 Gold (DE3)
Protocol: Solutions of monomeric peptides were prepared by dissolving the lyophilized Aβ42 peptide in 6 M GuHCl. Monomeric forms were purified from potential oligomeric species and salt using a Superdex 75 10/300 GL column (GE Healthcare) at a flowrate of 0.5 mL/min, and were eluted in 20 mM sodium phosphate buffer, pH 8 supplemented with 200 μM EDTA and 0.02% NaN3. The center of the peak was collected and the peptide concentration was determined from the absorbance of the integrated peak area using ε280=1400 l mol^−1 cm^−1. The obtained monomer was diluted with buffer to the desired concentration and supplemented with 20 μM Thioflavin T (ThT) from a 1 mM stock. All samples were prepared in low binding eppendorf tubes on ice using careful pipetting to avoid introduction of air bubbles. Each sample was then pipetted into multiple wells of a 96-well half-area, low-binding, clear bottom and PEG coating plate (Corning 3881), 80 μL per well.
We verified that the addition of 1% DMSO in the reaction mixture has no effect on Aβ42 aggregation.
(§1) Assays were initiated by placing the 96-well plate at 37° C. under quiescent conditions in a plate reader (Fluostar Omega, Fluostar Optima or Fluostar Galaxy, BMGLabtech, Offenburg, Germany). The ThT fluorescence was measured through the bottom of the plate with a 440 nm excitation filter and a 480 nm emission filter. The ThT fluorescence was followed for three repeats of each sample.
The time evolution of the total fibril mass concentration, M(t), is described by the following integrated rate law (30, 32)
(§2) [formula] where the kinetic parameters B±, C±, κ, κ∞ and ? are functions of the two ? combinations of the microscopic rate constants k+k2 and knk2, where kn, k+ and k2 are the primary nucleation, elongation and secondary nucleation rate constants, respectively.
The time evolution of the total fibril mass concentration, M(t), is described by the following integrated rate law
as §2, with “two” for “two ?”, “respectively. Aβ42 alone in 1% DMSO was first modeled to obtain the k+k2 and knk2 combined microscopic rate constants.” for “respectively.”
Target sequence in this assay (P05067 671-713): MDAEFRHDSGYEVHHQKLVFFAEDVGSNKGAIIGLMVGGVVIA
With the introduction of different small molecules, the aggregation process can be inhibited by one or more individual microscopic reactions. Microscopic rate constants k+k2 and knk2 were obtained in the presence of the molecules, and compared to the initial values of Aβ42 alone. This comparison allows one to understand which rate was mainly perturbed, as well as the potency of the compounds (by relative changes of their microscopic rates) with respect to each other.

Aβ42 [2] = target: T1, Aβ42; assay: ThT Aβ42 aggregation kinetics with 10% pre-formed fibril seeds (elongation dominant); settings: 2 μM Aβ42, 5-fold excess
Protocol: (§3) Samples were then collected from the wells into low-binding tubes and sonicated for 2 min in a sonicator bath at room temperature. Under the considered conditions (i.e. 4 μM Aβ42), the monomer concentration is negligible at equilibrium (31). The final concentration of fibrils, in monomer equivalents, was considered equal to the initial concentration of monomer. Fibrils were then added to freshly prepared monomer in order to reach either 5% or 10% fibrils final concentration.
as §1, with “sample. […]” for “sample.”
Target sequence in this assay (P05067 672-713 limits assumed): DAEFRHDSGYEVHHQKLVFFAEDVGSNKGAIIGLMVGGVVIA

Aβ42 [3] = target: T1, Aβ42; assay: ThT Aβ42 aggregation kinetics with 1-5% pre-formed fibril seeds (surface-catalyzed secondary nucleation); settings: 2 μM Aβ42, 1-5% seeds, 0.5-fold excess
Protocol: For the seeded experiments, preformed fibrils were prepared just prior to the experiment. Kinetic experiments were set up just as above for a […] Aβ42 samples in 20 mM sodium phosphate buffer, pH 8 with 200 μM EDTA, 0.02% NaN3 and 20 μM ThT. The ThT fluorescence was monitored for 3 hours to verify the formation of fibrils.
as §3
as §1, with “sample. […]” for “sample.”
Target sequence in this assay (P05067 672-713 limits assumed): as above
For the seeded experiments, preformed fibrils were prepared just prior to the experiment. […] The ThT fluorescence was monitored for 3 hours to verify the formation of fibrils. […]

Row | Compound | ranking of efficacy within set (Aβ42 [1]) | change of inhibitory activity relative to parent scaffold (Aβ42 [1]) | effect on Aβ42 aggregation of linker variants of bexarotene (Aβ42 [1]) | other results
1 | COc1ccc(-c2ccc3cc(C(=O)O)ccc3c2)cc1C12CC3CC(CC(C3)C1)C2 [Adapalene] | most effective molecules within Set C |  |  | 
2 | CC1(C)CC=C(C#Cc2ccccc2)c2cc(/C=C/c3ccc(C(=O)O)cc3)ccc21 [BMS493] |  | same effect |  | 
3 | CC1(C)C(=O)C(C)(C)c2cc(C(=O)Nc3ccc(C(=O)O)cc3)ccc21 [BMS753] |  |  |  | delay / effect on Aβ42 aggregation (Aβ42 [1]; 2 μM Aβ42, 3-fold excess): did not show any effect; effect on aggregation kinetics of Aβ42 (Aβ42 [1]; fold-excesses as high as 5): did not show any effect
4 | CC1(C)CC=C(c2cnc3ccccc3c2)c2cc(C(=O)Nc3ccc(C(=O)O)cc3)ccc21 [BMS195614] |  | substantial increase in primary nucleation inhibitory activity |  | 
5 | CC1(C)CCC(C)(C)c2cc(C3(c4ccc5cc(C(=O)O)ccc5c4)SCCS3)ccc21 [MM11253] | most effective molecules within Set C |  |  | 
6 | CC1(C)CCC(C)(C)c2cc(C3(c4ccc(C(=O)O)cc4)OCCO3)ccc21 [SR11237] |  |  | delayed the aggregation of Aβ42 to different extent | 
7 | C/C(=C\c1ccc(C(=O)O)cc1)c1ccc2c(c1)C(C)(C)CCC2(C)C [TTNPB] |  | increase in inhibitory activity | delayed the aggregation of Aβ42 to different extent | 
8 | CC1(C)CCC(C)(C)c2cc(NC(=O)c3ccc(C(=O)O)cc3)ccc21 [Tamibarotene] |  |  | delayed the aggregation of Aβ42 to different extent | 
9 | CCCCCOc1cc2c(cc1-c1cc(/C=C/C(=O)O)ccc1O)C(C)(C)CCC2(C)C [UVI3003] | most effective molecule within Set B |  |  | effect on aggregation kinetics / elongation with 10% fibril seeds (Aβ42 [2]): no effect could be observed; decrease of rate of surface-catalyzed secondary nucleation (k2) (Aβ42 [3]): 75%
10 | NCCCS(=O)(=O)O [tramiprosate] |  |  |  | effect on Aβ42 aggregation (Aβ42 [1]; even when present in 20-fold excess): no effects
